Assay results published in the NIST ThermoML archive (doi:10.1021/je1008747).

Details: Liquid

CCn1cc[n+](C)c1.C[C@H](O)C(=O)[O-] [3-ethyl-1-methylimidazolium (S)-2-hydroxypropanoate]
Details | mass density [kg/m3]
293.15 K, 101.33 kPa | 1149.7
298.15 K, 101.33 kPa | 1146.1
303.15 K, 101.33 kPa | 1142.5
308.15 K, 101.33 kPa | 1139
312.6 K, 100 kPa | 1136
312.6 K, 10000 kPa | 1140
312.6 K, 20000 kPa | 1144
312.6 K, 30000 kPa | 1148
312.6 K, 40000 kPa | 1151
312.6 K, 50000 kPa | 1155
312.6 K, 60000 kPa | 1158
312.6 K, 70000 kPa | 1162
312.6 K, 80000 kPa | 1165
312.6 K, 90000 kPa | 1168
312.6 K, 100000 kPa | 1172
312.6 K, 110000 kPa | 1175
312.6 K, 120000 kPa | 1178
312.6 K, 130000 kPa | 1181
312.6 K, 140000 kPa | 1183
312.6 K, 150000 kPa | 1186
312.6 K, 160000 kPa | 1189
312.6 K, 170000 kPa | 1192
312.6 K, 180000 kPa | 1195
312.6 K, 190000 kPa | 1197
312.6 K, 200000 kPa | 1200
313.15 K, 101.33 kPa | 1135.6
318.15 K, 101.33 kPa | 1132.2
323.15 K, 101.33 kPa | 1128.8
328.15 K, 101.33 kPa | 1125.4
332.1 K, 10000 kPa | 1126
332.1 K, 20000 kPa | 1131
332.1 K, 30000 kPa | 1135
332.1 K, 40000 kPa | 1139
332.1 K, 50000 kPa | 1142
332.1 K, 60000 kPa | 1146
332.1 K, 70000 kPa | 1149
332.1 K, 80000 kPa | 1153
332.1 K, 90000 kPa | 1156
332.1 K, 100000 kPa | 1159
332.1 K, 110000 kPa | 1163
332.1 K, 120000 kPa | 1166
332.1 K, 130000 kPa | 1169
332.1 K, 140000 kPa | 1172
332.1 K, 150000 kPa | 1175
332.1 K, 160000 kPa | 1178
332.1 K, 170000 kPa | 1180
332.1 K, 180000 kPa | 1183
332.1 K, 190000 kPa | 1186
332.1 K, 200000 kPa | 1189
333.15 K, 101.33 kPa | 1122.1
338.15 K, 101.33 kPa | 1118.7
343.15 K, 101.33 kPa | 1115.4
348.15 K, 101.33 kPa | 1112.1
352.1 K, 10000 kPa | 1113
352.1 K, 20000 kPa | 1118
352.1 K, 30000 kPa | 1122
352.1 K, 40000 kPa | 1126
352.1 K, 50000 kPa | 1130
352.1 K, 60000 kPa | 1134
352.1 K, 70000 kPa | 1137
352.1 K, 80000 kPa | 1141
352.1 K, 90000 kPa | 1144
352.1 K, 100000 kPa | 1148
352.1 K, 110000 kPa | 1151
352.1 K, 120000 kPa | 1154
352.1 K, 130000 kPa | 1157
352.1 K, 140000 kPa | 1160
352.1 K, 150000 kPa | 1164
352.1 K, 160000 kPa | 1166
352.1 K, 170000 kPa | 1169
352.1 K, 180000 kPa | 1172
352.1 K, 190000 kPa | 1175
352.1 K, 200000 kPa | 1178
353.15 K, 101.33 kPa | 1108.8
372.2 K, 10000 kPa | 1101
372.2 K, 20000 kPa | 1105
372.2 K, 30000 kPa | 1110
372.2 K, 40000 kPa | 1114
372.2 K, 50000 kPa | 1118
372.2 K, 60000 kPa | 1122
372.2 K, 70000 kPa | 1126
372.2 K, 80000 kPa | 1129
372.2 K, 90000 kPa | 1133
372.2 K, 100000 kPa | 1137
372.2 K, 110000 kPa | 1140
372.2 K, 120000 kPa | 1143
372.2 K, 130000 kPa | 1147
372.2 K, 140000 kPa | 1150
372.2 K, 150000 kPa | 1153
372.2 K, 160000 kPa | 1156
372.2 K, 170000 kPa | 1159
372.2 K, 180000 kPa | 1162
372.2 K, 190000 kPa | 1165
372.2 K, 200000 kPa | 1168
392.4 K, 10000 kPa | 1088
392.4 K, 20000 kPa | 1093
392.4 K, 30000 kPa | 1098
392.4 K, 40000 kPa | 1102
392.4 K, 50000 kPa | 1106
392.4 K, 60000 kPa | 1110
392.4 K, 70000 kPa | 1114
392.4 K, 80000 kPa | 1118
392.4 K, 90000 kPa | 1122
392.4 K, 100000 kPa | 1126
392.4 K, 110000 kPa | 1129
392.4 K, 120000 kPa | 1133
392.4 K, 130000 kPa | 1136
392.4 K, 140000 kPa | 1139
392.4 K, 150000 kPa | 1143
392.4 K, 160000 kPa | 1146
392.4 K, 170000 kPa | 1149
392.4 K, 180000 kPa | 1152
392.4 K, 190000 kPa | 1155
392.4 K, 200000 kPa | 1158
412.4 K, 10000 kPa | 1076
412.4 K, 20000 kPa | 1081
412.4 K, 30000 kPa | 1086
412.4 K, 40000 kPa | 1090
412.4 K, 50000 kPa | 1095
412.4 K, 60000 kPa | 1099
412.4 K, 70000 kPa | 1103
412.4 K, 80000 kPa | 1107
412.4 K, 90000 kPa | 1111
412.4 K, 100000 kPa | 1115
412.4 K, 110000 kPa | 1119
412.4 K, 120000 kPa | 1122
412.4 K, 130000 kPa | 1126
412.4 K, 140000 kPa | 1129
412.4 K, 150000 kPa | 1132
412.4 K, 160000 kPa | 1136
412.4 K, 170000 kPa | 1139
412.4 K, 180000 kPa | 1142
412.4 K, 190000 kPa | 1145
412.4 K, 200000 kPa | 1148
432.2 K, 10000 kPa | 1064
432.2 K, 20000 kPa | 1069
432.2 K, 30000 kPa | 1074
432.2 K, 40000 kPa | 1079
432.2 K, 50000 kPa | 1084
432.2 K, 60000 kPa | 1088
432.2 K, 70000 kPa | 1093
432.2 K, 80000 kPa | 1097
432.2 K, 90000 kPa | 1101
432.2 K, 100000 kPa | 1105
432.2 K, 110000 kPa | 1109
432.2 K, 120000 kPa | 1112
432.2 K, 130000 kPa | 1116
432.2 K, 140000 kPa | 1119
432.2 K, 150000 kPa | 1123
432.2 K, 160000 kPa | 1126
432.2 K, 170000 kPa | 1130
432.2 K, 180000 kPa | 1133
432.2 K, 190000 kPa | 1136
432.2 K, 200000 kPa | 1139
